Assay results: patent US11224582B2, “Amino acid formulations for pancreatic viability” (Almeda Labs LLC, priority 2017, dated 2022)
Entries after “also recorded” stand apart in the source; their conditions may differ.

Columns and labels:
[1] = system: human beta-cell line (INS-1 832/13); assay: Viability assay (PrestoBlue) of beta-cell line with single amino acids, double crosses and blends, Example 4; conditions: for effect of single amino acid on cell viability: 5-hour exposure in PBS; for effect on cell viability in single / double crosses: each amino acid at 1 mg/mL; for effect on cell viability at the highest doses / higher concentrations: single amino acids
Description: The human beta-cell line (INS-1 832/13) was expanded and maintained in RPMI-1640 growth media during expansion. Cells were grown and sustained in T75 cell culture flasks in an incubator at 37° C. and 5% CO2. Cells were passaged every 4th day via trypsinization. All cell media changes and passage work was done under a biosafety hood to ensure sterility of the cultures. Readings were obtained from the EnSpire Multimode Plate Reader (Perkin Elmer) with excitation of 560 nm and emission of 590 nm. To avoid plate edge effects the outer wells of each plate were used as blanks.
The INS-1 832/13 cell line, a derivation of the INS-1 cell line, was cultured in a growth medium consisting of RPMI-1640, along with 1 M HEPES buffer solution, 50×INS supplement (glutamine, Na-pyruvate, and B-mercaptoethanol), Antibiotic-Antimycotic (Gibco by LifeTechnologies), and Fetal Bovine Serum (HyClone). Cells were grown and sustained in a T75 cell culture flask. The cells were placed in a humidified incubator at 37° C. and 5% CO2. Due to the rapid growth of these cells, media was changed on every second day and passaged on every fourth day via trypsinization. When cells were confluent, they were exposed to amino acids as described below.
Pilot studies were undertaken with 6 single amino acids to determine the optimal conditions for cell testing, and the optimal time for exposure to the amino acids. […] Thus, a second trial was undertaken removing the media and placing cells in phosphate buffered saline at the time of the amino acid addition. […] Thus, the optimal conditions were determined to be a 5-hour exposure to the amino acids in PBS.
For the full study, cells plated in 384-well plates were exposed to individual amino acids at 10 full-log doses for 4 hours at 37° C. and 5% CO2. PrestoBlue (10%) was added to each well using the Hamilton Star Automated Fluid Handling System, and 1 hour later, for a total of 5 hours of exposure to the amino acids.
The plates were loaded into the EnSpire plate reader with excitation of 560 nm and emission of 590 nm excitation wavelengths.
Amino acids were added to a minimal buffer in full log concentrations starting at 1E−08 through 10 mg/mL. […] In the graph, the data have been normalized to cell viability in minimal buffer with no amino acids (100%).
Thus, a concentration of 1 mg/mL of a single amino acid is actually a 5 mg/mL of the full blend, because there are 5 different amino acids in each blend mixed in equal amounts.

[2] = system: rat islets; assay: Viability assay of rat islets (Yo-Pro / propidium iodide staining); format: cell-based; conditions: for Apoptotic Cells (%) / Live Cells (%) / Necrotic Cells (%): 1 g/L in RPMI, 11.6 mM glucose
Description: During the long-term (11 day) exposure, the islets were administered Amino Acid Formulation #1 or cysteine (at the same concentration) or culture media with no added amino acids.
Isolated rat islets were cultured in 100 cm^2 cell culture plates (untreated) in 20 ml of Roswell Park Memorial Institute (RPMI) media. […] Islets were removed from the dish and placed in 50 ml tubes. Islets were allowed time to settle to the bottom of the tube. The excess media was removed, and the islets were moved to microcentrifuge tubes, and DPBS solution was added to each tube. Cells were washed and fresh DPBS added.
Islets had media changed every 2 days with continuous exposure to Amino Acid Formulation #1, Cysteine alone, or media alone. Amino Acid Formulation #1 was prepared in the lab using amino acid capsules: […]
The working solutions contained 1 g/1 L concentration of Amino Acid Formulation #1 or cysteine alone prepared in RPMI.
25-50 islets were removed from the dishes and placed in 50 ml tubes. Islets were allowed time to settle to the bottom of the tube. The excess media was removed, and the islets were moved to microcentrifuge tubes, and DPBS solution was added to each tube. Cells were washed and fresh DPBS added. Propidium iodide and yo-pro were added to the tubes at a ratio of 1 μl reagent to 1 ml cells in DPBS.
Individual wells of 96-well plates were manually loaded with 10-15 islets each and checked visually under a microscope for consistency between wells. 30 minutes later, the plates were loaded into the BioTeck plate reader with readings for Yo-Pro and Propidium iodide with additional verification of islet tissue using dithizone staining.
Results were saved as images for later cellular analysis.
All islets identified in each condition were scored for the percent area of apoptotic and necrotic cells. The remaining percentage was calculated as live cells.

[3] = system: rat islets; assay: Islet survival (number of islets over time in culture); format: cell-based
Text: The objective of the experiment was to test the effect of long-term exposure of rat islets to Amino Acid Formulation #1 and compare those results to the currently-marketed amino acid, cysteine. A group without added amino acids was used as a control group. The comparison was based on the number of dead cells within islets over time, a count of the number of islets surviving over time, and the functional test of cellular metabolism after long-term exposure.
Rat islets were isolated from the pancreata of female animals under approved protocol and SOPs. […] The imaging capabilities of the Cytation plate reader was utilized for survival values.
All groups began with the same number of total islets per group.

[4] = Dissolution of test articles in RPMI working solutions; format: physicochemical; conditions: 1 g/1 L in RPMI, after 24 hours at 37° C.
Description: The working solutions contained 1 g/1 L concentration of Amino Acid Formulation #1 or cysteine alone prepared in RPMI. […] The working medium was kept at 37° C. in incubator with islets.

[5] = system: rat islets; assay: Dithizone staining / light microscopy of rat islets; format: cell-based; conditions: day 1
Text: Islets were exposed to a single dose of Amino Acid Formulation #1 or cysteine for 11 days. FIG. 1 illustrates images of islets from each condition on day 1, stained with dithizone, which identifies islet cells via dark red color.
In the control media, the same was found.

Structure (SMILES): C[C@@H](O)[C@H](N)C(=O)O [threonine, L-Threonine]
- effect of single amino acid on cell viability ([1]; 10 mg/mL): slightly positive increases in viability

Structure (SMILES): N[C@@H](Cc1c[nH]cn1)C(=O)O [histidine, L-Histidine]
- effect on cell viability in single / double crosses [1]: very little effect on cell viability except when paired with asparagine or arginine
- cells killed (fraction, words) ([1]; single amino acid, high doses (from 1 mg/mL)): approximately half
- effect of single amino acid on cell viability ([1]; starting at 1 mg/mL): dramatic reductions in the viability

Structure (SMILES): NC(=O)C[C@H](N)C(=O)O [asparagine, L-Asparagine]
- cells left in the dish that were alive ([1]; double cross: another 1 mg/mL of asparagine added to 1 mg/mL asparagine): 18%
- effect on cell viability in single / double crosses [1]: dramatic reduction in beta cell viability
- effect on cell viability at the highest doses / higher concentrations [1]: negative effects on cell viability at the highest doses
- effect of single amino acid on cell viability ([1]; starting at 1 mg/mL): dramatic reductions in the viability

Structure (SMILES): N[C@@H](CS)C(=O)O [Cysteine, L-Cysteine]
- route of cell death (apoptosis / necrosis) [2]: both apoptosis and necrosis
- cell death (Yo-Pro and Propidium Iodide staining) ([2]; 24 hours exposure, compared with control and Formulation #1): greater than the other 2
- Apoptotic Cells (%) ([2]; Day 1): 18.2 + 21.3%
- Live Cells (%) ([2]; Day 1): 58.4 ± 33.4 %
- Necrotic Cells (%) ([2]; Day 1): 23.4 ± 20.4%
- Apoptotic Cells (%) ([2]; Day 4): 47.1 ± 35.9%
- Live Cells (%) ([2]; Day 4): 42.0 ± 39.8 %
- Necrotic Cells (%) ([2]; Day 4): 10.9 + 13.4%
- viability compared with the other groups ([2]; days 1, 4 and 8): significantly lower viability than the other two groups
- islets found in the group ([3]; day 8): No islets could be identified; also recorded: no live islets could be found
- islet survival time in culture ([3]; no islets survived past this time): ≤ 6 days
- number of islets as % of the Amino Acid Formulation #1 group ([3]; within 24 hours of exposure): 78%
- undissolved crystals in working solution [4]: still had microscopic crystals that had not gone completely into solution
- islets with core cell death [5]: approximately 30%
- effect of single amino acid on cell viability ([1]; 0.01 mg/mL and higher): positive impact on cell viability
- effect on cell viability in single / double crosses [1]: most positive effect on cell health
- effect on cell viability at the highest doses / higher concentrations [1]: improve viability at the higher concentrations tested

Structure (SMILES): N=C(N)NCCC[C@H](N)C(=O)O [arginine, L-Arginine]
- effect on cell viability in single / double crosses [1]: decrease in cell viability when added to any other amino acid
- effect on cell viability at the highest doses / higher concentrations [1]: negative effects on cell viability at the highest doses
- effect of single amino acid on cell viability ([1]; starting at 1 mg/mL): dramatic reductions in the viability

Structure (SMILES): N[C@@H](CO)C(=O)O [serine, L-Serine]
- effect of single amino acid on cell viability ([1]; 10 mg/mL): slightly positive increases in viability
